Like-named read-outs stand apart in the source and are kept apart here.
How the values were obtained:
[1] = target: T1, TRKB (Homo sapiens, UniProt Q16620); conditions: cited from earlier work
T1 construct: purchased Reaction Biology Corp

[2] = target: T2, ARK5/NUAK1 (Homo sapiens, UniProt O60285); conditions: cited from earlier work
T2 construct: purchased Reaction Biology Corp
T2 sequence (O60285 1-661): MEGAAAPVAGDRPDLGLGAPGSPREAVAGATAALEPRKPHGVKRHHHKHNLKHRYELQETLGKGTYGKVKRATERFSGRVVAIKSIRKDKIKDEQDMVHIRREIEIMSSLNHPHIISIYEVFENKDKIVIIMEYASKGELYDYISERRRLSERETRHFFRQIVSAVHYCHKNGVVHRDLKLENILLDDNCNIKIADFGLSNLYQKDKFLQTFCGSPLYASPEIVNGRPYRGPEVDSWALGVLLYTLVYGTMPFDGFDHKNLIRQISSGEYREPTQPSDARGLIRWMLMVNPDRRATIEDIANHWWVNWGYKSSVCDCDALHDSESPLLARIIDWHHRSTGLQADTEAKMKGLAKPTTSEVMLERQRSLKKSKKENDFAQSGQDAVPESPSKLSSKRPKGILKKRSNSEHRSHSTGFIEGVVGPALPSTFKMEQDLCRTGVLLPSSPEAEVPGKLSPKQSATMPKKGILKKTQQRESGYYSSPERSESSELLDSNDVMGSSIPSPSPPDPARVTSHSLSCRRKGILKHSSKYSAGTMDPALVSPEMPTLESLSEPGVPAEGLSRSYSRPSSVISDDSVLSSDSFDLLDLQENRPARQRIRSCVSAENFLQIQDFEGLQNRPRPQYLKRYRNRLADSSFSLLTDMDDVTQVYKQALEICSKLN

[3] = target: T3, CDK3/cyclin E (Homo sapiens, UniProt Q00526); conditions: cited from earlier work
T3 construct: purchased Reaction Biology Corp

[4] = target: T4, TLK1 (Homo sapiens, UniProt Q9UKI8); conditions: cited from earlier work
T4 construct: purchased Reaction Biology Corp
T4 sequence (Q9UKI8 1-766): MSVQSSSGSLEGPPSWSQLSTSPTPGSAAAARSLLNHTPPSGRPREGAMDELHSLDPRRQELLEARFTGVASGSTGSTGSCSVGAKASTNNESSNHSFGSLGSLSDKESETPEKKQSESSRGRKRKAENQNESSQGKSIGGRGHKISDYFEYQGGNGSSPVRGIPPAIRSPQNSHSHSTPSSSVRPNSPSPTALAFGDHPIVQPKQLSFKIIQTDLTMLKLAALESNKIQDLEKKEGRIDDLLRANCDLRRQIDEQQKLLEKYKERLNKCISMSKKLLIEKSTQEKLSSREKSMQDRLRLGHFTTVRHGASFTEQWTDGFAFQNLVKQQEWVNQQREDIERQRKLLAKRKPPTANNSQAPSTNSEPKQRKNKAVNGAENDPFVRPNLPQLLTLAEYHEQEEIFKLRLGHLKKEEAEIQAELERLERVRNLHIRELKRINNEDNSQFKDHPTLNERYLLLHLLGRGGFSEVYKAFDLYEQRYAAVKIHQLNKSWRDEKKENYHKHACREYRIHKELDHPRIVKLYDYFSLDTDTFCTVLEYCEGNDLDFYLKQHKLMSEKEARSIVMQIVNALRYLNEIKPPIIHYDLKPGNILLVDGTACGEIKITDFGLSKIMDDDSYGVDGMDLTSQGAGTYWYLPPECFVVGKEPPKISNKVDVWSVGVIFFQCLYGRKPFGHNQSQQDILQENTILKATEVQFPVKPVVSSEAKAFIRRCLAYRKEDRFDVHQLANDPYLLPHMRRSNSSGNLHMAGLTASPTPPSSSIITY

[5] = target: T5, DAPK1 (Homo sapiens, UniProt P53355); conditions: cited from earlier work
T5 construct: purchased Reaction Biology Corp

[6] = target: T6, TRKC (Homo sapiens, UniProt Q16288); conditions: cited from earlier work
T6 construct: purchased Reaction Biology Corp

[7] = target: T7, JNK1 (Homo sapiens, UniProt P45983); conditions: cited from earlier work
T7 construct: purchased Reaction Biology Corp
T7 sequence (P45983 whole entry): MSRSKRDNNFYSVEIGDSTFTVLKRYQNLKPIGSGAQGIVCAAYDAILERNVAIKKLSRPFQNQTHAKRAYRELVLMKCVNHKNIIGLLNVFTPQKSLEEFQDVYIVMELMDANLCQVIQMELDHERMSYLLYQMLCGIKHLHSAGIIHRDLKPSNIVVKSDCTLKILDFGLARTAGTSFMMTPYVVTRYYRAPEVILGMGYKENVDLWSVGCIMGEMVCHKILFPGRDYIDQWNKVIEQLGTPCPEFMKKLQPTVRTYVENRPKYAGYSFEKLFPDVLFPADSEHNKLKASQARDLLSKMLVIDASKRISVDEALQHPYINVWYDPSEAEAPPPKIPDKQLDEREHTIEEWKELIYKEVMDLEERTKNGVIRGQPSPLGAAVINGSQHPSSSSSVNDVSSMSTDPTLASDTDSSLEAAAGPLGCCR

[8] = target: T8, AMPK(A2/B2/G2) (Homo sapiens, UniProt P54646); assay: Kinase panel assay (radiolabelled); type: biochemical; conditions: 30 μM compound, ATP 10 μM; duplicates Data 1/Data 2
T8 construct: purchased Reaction Biology Corp

[9] = target: T9, AMPK(A2/B2/G2) (Homo sapiens, UniProt O43741+P54646+Q9UGJ0); assay: Kinase panel assay (radiolabelled); type: biochemical; conditions: 30 μM compound, ATP 10 μM; duplicates Data 1/Data 2; read-out: % Enzyme Activity (relative to DMSO controls)
T9 construct: purchased Reaction Biology Corp

[10] = target: T10, PKCa (Homo sapiens, UniProt P17252); assay: Kinase panel assay (radiolabelled); type: biochemical; conditions: ATP 10 μM
T10 construct: purchased Reaction Biology Corp

[11] = target: T11, ZIPK/DAPK3 (Homo sapiens, UniProt O43293); assay: Kinase panel assay (radiolabelled); type: biochemical; conditions: ATP 10 μM
T11 construct: purchased Reaction Biology Corp
T11 sequence (O43293 whole entry): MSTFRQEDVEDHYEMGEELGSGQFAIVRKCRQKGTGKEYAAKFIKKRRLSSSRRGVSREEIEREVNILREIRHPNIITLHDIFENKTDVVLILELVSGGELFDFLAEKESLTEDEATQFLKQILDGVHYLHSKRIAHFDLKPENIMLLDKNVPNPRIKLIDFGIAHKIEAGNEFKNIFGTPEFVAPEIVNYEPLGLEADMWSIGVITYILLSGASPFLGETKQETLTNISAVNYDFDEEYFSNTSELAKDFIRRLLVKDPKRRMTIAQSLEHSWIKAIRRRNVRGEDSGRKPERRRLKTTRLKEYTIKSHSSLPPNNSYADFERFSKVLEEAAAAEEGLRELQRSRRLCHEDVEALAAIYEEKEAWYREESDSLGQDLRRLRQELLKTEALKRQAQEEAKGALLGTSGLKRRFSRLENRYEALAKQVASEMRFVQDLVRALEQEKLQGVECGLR

[12] = target: T12, TRKA (Homo sapiens, UniProt P04629); assay: Kinase panel assay (radiolabelled); type: biochemical; conditions: ATP 10 μM
T12 construct: purchased Reaction Biology Corp
T12 sequence (P04629 33-796): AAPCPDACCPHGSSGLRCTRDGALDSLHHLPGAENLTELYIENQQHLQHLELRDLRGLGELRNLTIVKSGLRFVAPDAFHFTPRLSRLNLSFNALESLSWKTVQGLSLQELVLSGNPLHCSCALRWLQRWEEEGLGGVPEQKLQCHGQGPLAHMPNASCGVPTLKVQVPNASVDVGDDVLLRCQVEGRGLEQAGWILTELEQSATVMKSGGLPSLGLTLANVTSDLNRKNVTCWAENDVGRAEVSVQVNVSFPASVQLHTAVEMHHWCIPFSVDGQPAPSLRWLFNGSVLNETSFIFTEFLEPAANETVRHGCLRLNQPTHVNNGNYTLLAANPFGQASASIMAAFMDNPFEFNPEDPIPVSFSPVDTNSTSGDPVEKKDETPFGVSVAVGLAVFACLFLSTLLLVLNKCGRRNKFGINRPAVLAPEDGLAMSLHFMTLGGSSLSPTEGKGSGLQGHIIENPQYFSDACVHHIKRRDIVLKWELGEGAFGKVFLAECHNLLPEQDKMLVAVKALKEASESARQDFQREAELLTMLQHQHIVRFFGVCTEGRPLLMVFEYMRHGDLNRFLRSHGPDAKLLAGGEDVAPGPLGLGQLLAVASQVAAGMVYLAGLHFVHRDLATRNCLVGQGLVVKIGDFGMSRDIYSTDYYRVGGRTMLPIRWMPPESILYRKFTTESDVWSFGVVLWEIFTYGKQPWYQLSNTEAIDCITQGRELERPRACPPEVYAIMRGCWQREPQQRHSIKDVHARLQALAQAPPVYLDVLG

[13] = target: T13, AMPK(A1/B1/G1) (Homo sapiens, UniProt P54619+Q13131+Q9Y478); assay: Kinase panel assay (radiolabelled); type: biochemical; conditions: 30 μM compound, ATP 10 μM; duplicates Data 1/Data 2; read-out: % Enzyme Activity (relative to DMSO controls)
T13 construct: purchased Reaction Biology Corp

[14] = target: T14, AMPK(A1/B1/G1) (Homo sapiens, UniProt Q13131); assay: Kinase panel assay (radiolabelled); type: biochemical; conditions: 30 μM compound, ATP 10 μM; duplicates Data 1/Data 2
T14 construct: purchased Reaction Biology Corp

[15] = target: T15, PI3K (p110a(E542K)/p85a) (Homo sapiens, UniProt P42336, E542K); assay: Kinase panel assay (lipid kinase); type: biochemical; conditions: 30 μM compound, ATP 10 μM, duplicates Data 1/Data 2
T15 construct: purchased Reaction Biology Corp
T15 sequence (P42336 whole entry E542K): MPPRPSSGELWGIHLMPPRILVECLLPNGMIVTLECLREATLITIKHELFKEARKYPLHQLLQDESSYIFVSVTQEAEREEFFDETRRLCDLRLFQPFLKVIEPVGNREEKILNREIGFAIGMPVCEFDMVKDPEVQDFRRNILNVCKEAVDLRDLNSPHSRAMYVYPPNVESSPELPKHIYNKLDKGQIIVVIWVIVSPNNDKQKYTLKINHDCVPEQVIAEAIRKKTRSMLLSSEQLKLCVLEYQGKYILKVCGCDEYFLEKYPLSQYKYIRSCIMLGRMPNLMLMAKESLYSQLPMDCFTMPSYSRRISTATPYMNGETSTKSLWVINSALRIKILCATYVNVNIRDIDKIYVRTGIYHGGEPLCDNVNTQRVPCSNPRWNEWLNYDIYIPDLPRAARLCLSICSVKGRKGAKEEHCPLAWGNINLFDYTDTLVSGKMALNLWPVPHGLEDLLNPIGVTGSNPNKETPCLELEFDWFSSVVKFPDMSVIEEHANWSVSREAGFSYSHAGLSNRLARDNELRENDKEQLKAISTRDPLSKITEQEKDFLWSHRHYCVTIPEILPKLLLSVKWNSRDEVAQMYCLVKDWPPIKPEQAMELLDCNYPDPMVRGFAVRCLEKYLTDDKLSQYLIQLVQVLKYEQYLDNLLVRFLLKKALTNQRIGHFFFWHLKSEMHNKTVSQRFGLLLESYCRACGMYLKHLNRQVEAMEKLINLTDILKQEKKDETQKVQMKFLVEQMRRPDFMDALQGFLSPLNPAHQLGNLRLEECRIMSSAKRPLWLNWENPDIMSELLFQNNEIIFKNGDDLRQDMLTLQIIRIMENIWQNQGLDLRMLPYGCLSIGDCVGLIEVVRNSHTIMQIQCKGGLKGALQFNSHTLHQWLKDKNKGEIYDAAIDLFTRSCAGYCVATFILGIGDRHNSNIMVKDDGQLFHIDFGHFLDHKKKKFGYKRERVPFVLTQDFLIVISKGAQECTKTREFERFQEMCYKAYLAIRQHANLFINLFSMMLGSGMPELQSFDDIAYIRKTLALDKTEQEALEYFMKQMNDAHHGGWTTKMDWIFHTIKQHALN
T15 sequence (P27986 whole entry partner): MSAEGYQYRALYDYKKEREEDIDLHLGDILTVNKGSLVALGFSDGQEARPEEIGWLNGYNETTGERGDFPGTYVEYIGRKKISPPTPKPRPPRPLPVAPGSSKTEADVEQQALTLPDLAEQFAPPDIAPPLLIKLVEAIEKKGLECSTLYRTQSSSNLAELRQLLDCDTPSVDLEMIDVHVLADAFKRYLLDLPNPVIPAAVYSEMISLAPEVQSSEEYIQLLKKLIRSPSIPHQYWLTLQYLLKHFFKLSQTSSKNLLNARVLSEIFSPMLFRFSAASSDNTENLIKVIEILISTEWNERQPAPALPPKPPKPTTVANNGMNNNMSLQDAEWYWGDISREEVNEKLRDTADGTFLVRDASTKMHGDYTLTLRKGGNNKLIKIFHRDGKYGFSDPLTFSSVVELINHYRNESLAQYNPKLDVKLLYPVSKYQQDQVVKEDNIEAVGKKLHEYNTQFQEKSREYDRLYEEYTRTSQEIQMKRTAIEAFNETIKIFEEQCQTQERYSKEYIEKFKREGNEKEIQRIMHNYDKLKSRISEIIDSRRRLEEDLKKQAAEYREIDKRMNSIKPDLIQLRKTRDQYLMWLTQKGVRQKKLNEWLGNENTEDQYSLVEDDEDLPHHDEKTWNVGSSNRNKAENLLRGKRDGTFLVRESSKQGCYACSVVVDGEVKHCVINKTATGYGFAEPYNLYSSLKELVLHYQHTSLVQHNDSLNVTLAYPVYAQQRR

[16] = target: T16, TRKA (G595R) (Homo sapiens, UniProt P04629, G595R); assay: Kinase panel assay (radiolabelled); type: biochemical; conditions: 30 μM compound, ATP 10 μM, duplicates Data 1/Data 2
T16 construct: purchased Reaction Biology Corp
T16 sequence (P04629 33-796 G595R): as the sequence (P04629 33-796) above, with G563R counted along it

[17] = target: T17, mTOR/FRAP1 (Homo sapiens, UniProt P42345); assay: Kinase panel assay (radiolabelled); type: biochemical; conditions: 30 μM compound, ATP 10 μM, duplicates Data 1/Data 2
T17 construct: purchased Reaction Biology Corp

[18] = target: T4, TLK1; assay: Kinase panel assay (radiolabelled); type: biochemical; conditions: ATP 10 μM
[19] = target: T18, CDK1/cyclin B (Homo sapiens, UniProt P06493); assay: Kinase panel assay (radiolabelled); type: biochemical; conditions: ATP 10 μM
T18 construct: purchased Reaction Biology Corp
T18 sequence (P06493 whole entry): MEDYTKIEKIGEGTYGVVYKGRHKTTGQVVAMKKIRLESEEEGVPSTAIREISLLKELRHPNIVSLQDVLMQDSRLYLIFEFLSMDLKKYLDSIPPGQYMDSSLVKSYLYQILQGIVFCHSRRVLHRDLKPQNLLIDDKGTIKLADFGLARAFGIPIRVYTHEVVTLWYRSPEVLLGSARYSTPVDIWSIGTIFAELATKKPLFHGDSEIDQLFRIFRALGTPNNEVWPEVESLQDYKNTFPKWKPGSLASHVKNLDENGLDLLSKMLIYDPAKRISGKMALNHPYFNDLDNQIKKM
T18 sequence (P14635 whole entry partner): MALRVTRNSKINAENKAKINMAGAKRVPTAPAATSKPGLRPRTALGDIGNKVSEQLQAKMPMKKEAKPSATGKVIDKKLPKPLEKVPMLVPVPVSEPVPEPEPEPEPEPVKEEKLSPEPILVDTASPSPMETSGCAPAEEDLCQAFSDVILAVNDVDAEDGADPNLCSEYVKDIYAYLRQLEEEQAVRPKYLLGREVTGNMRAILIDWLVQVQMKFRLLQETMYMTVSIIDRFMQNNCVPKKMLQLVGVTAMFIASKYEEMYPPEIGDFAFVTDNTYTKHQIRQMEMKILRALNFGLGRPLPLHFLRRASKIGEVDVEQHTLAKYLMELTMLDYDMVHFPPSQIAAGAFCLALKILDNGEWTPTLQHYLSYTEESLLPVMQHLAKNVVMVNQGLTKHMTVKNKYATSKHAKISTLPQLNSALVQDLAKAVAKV

[20] = 30 μM compound, duplicates Data 1/Data 2
[21] = 30 μM compound, duplicates Data 1/Data 2, read-out: % Enzyme Activity (relative to DMSO controls)
[22] = 30 μM, average ± SD, read-out: % Residual Activity at 30 μM
[23] = read-out: % Enzyme Activity (relative to DMSO controls)

O=C1C=CC2(C=C1)OCC(Cc1cc(C(F)(F)F)cc(C(F)(F)F)c1)C(=O)N2c1ccccc1 (racemic) [1c]
% Residual Activity at 30 μM [1]: 94.1 ± 1.7%
% Residual Activity at 30 μM [2]: 70.8 ± 0.1%
% Residual Activity at 30 μM [3]: 59.3 ± 1.2%
% Residual Activity at 30 μM [4]: 58.0 ± 0.9%
% Residual Activity at 30 μM [5]: 45.4 ± 0.1%
% Residual Activity at 30 μM [6]: 97.9 ± 0.2%
% Residual Activity at 30 μM [7]: 35.8 ± 0.3%

O=C1C=CC2(C=C1)OCC(Cc1cn(-c3cccc(Cl)c3)nn1)C(=O)N2c1ccccc1 (centres unmarked) [2d, 3-((1-(3-Chlorophenyl)-1H-1,2,3-triazol-4-yl)methyl)-5-phenyl-1-oxa-5-azaspiro[5.5]undeca-7,10-diene-4,9-dione]
% Enzyme Activity (relative to DMSO controls) [8]: 111.36%
remaining activity at 30 µM [9]: 114%
% Enzyme Activity (relative to DMSO controls) [10, 20]: 62.24%
remaining activity at 30 µM [10, 21]: 63%
remaining activity at 30 µM [10, 22]: 62.6 ± 0.5%
% Enzyme Activity (relative to DMSO controls) [11, 20]: 86.95%
remaining activity at 30 µM [11, 21]: 88.8%
remaining activity at 30 µM [11, 22]: 87.9 ± 1.3%
% Enzyme Activity (relative to DMSO controls) [12, 20]: 115.47%
remaining activity at 30 µM [12, 21]: 119%
remaining activity at 30 µM [12, 22]: 117 ± 2.6%
remaining activity at 30 µM [13]: 60.9%
% Enzyme Activity (relative to DMSO controls) [14]: 60.04%
% Enzyme Activity (relative to DMSO controls) [15]: 100.20%
remaining activity at 30 µM [15, 23]: 103%
% Enzyme Activity (relative to DMSO controls) [16]: 99.08%
remaining activity at 30 µM [16, 23]: 103%
% Enzyme Activity (relative to DMSO controls) [17]: 96.09%
remaining activity at 30 µM [17, 23]: 103%
% Enzyme Activity (relative to DMSO controls) [18, 20]: 81.34%
remaining activity at 30 µM [18, 21]: 82.1%
remaining activity at 30 µM [18, 22]: 81.7 ± 0.5%
% Enzyme Activity (relative to DMSO controls) [19, 20]: 58.64%
remaining activity at 30 µM [19, 21]: 59.3%
remaining activity at 30 µM [19, 22]: 59 ± 0.5%
